Experimental data reported in patent US6497862B2, “Composition for inhibiting body odor and uses thereof” (Kabushiki Kaisha Hayashibara, priority 2000, dated 2002).

Key:
[1] = Decomposition of fatty acids by heating, linoleic acid (Experiment 5); conditions: heated at 105° C. for one hour with 100 mg test saccharide; control 60.0
Procedure: (§1) One hundred milligrams of linoleic acid or 9-hexadecanoic acid as a fatty acid, 500 mg of a cellulose powder, and 1.25 ml of 0.12 M phosphate buffer (pH 6.0) were placed in a 20-ml glass vial. To the glass vial was added 100 mg of either of trehalose, maltitol and sucrose as a test saccharide, followed by sealing with a butyl rubber cap. As a control system, there provided a glass vial with no test saccharide that differed from the test systems only in this point. These vials were heated at 105° C. for one hour. Another glass vial with no heat treatment, which contained the same ingredients as shown in the above, was provided that differed from the test systems only in that it had no heat treatment.
(§2) The above test systems with or without heat treatment and the control system were subjected to the following methyl esterification reaction and analyzed on GC to measure the content of fatty acids; To each glass vial was added 20 ml of a mixture solution of chloroform and methanol (=2:1 by volume) to extract fatty acids, and one milliliter of each resulting extract was collected in a 10-ml eggplant-shape flask, concentrated, and dried in vacuo. […]
(§3) Two microliters of each of the resulting n-hexane layers were analyzed on GC using “GAS CHROMATOGRAPH GC-14A”, a GC apparatus, commercialized by Shimadzu Corporation, Tokyo, Japan; and “CAPILLARY COLUMN FFAP”, an analysis column having an inner diameter of 0.25 mm, a length of 30 m, and a membrane thickness of 0.25 μm, commercialized by GL Sciences Inc., Tokyo, Japan, under the conditions of using helium gas as a carrier at a flow rate of 1 ml/min, at a temperature of 250° C. as a sample injection temperature, a column thermostatic bath temperature being kept at 80° C. for five minutes and then increased up to 240° C. at a rate of 5° C./min, and a hydrogen flame ionization detector for detecting fatty acids. Based on the peak area of the obtained gas chromatograms, it was calculated the content of fatty acids, i.e., linoleic acid and 9-hexadecanoic acid, before or after the heat treatment in the test- and control-systems. […]

[2] = Formation of volatile aldehydes from oleic acid by heating, GC analysis of head space gas (Experiment 1); conditions: oleic acid 100 mg + 100 mg test saccharide, heated at 105° C. for one hour; for Content in HSG, Hexanal: control 0.08; for Content in HSG, Butanal: control 1.04; for Content in HSG, Propanal: control 9.41
Procedure: One hundred milligrams of oleic acid as a fatty acid, 500 mg of cellulose powder, and 1.25 ml of 0.12 M phosphate buffer (pH 6.0) were placed in a 20-ml glass vial. To the glass vial were added 100 mg of either of crystalline trehalose hydrate, crystalline maltitol anhydride, crystalline sorbitol anhydride, crystalline sucrose anhydride, crystalline maltose anhydride, and crystalline neotrehalose hydride as test saccharides (throughout Experiments 1 to 6, these saccharides are designated as “trehalose”, “maltitol”, sorbitol”, “sucrose”, “maltose”, and “neotrehalose”, respectively), followed by sealing the glass vial with a butyl rubber. As a control system, there provided a glass vial, with no a test saccharide, which differed from the test glass vial on this point. These glass vials were heated at 105° C. for one hour, cooled to ambient temperature, and kept in an aluminum heat-block (abbreviated as “heat block, hereinafter”), which had been preheated to 80° C. After 5-minutes standing, two milliliters of a head space gas (abbreviated as “HSG”, hereinafter) were collected from each glass vial with a syringe.
The collected HSG was analyzed for content of volatile aldehydes on gas chromatography (abbreviated as “GC” hereinafter) using “GAS CHROMATOGRAPH GC-14A”, as a GC apparatus; “CAPILLARY COLUMN SUPELCO-WAX”, having 0.25 mm in inner diameter, 60 m in length, and 0.25 μm in thickness, commercialized by Supelco Inc., Tokyo, Japan, as a column for analysis; helium gas at a flow rate of one ml/min as a carrier gas, under temperature conditions of 250° C. for injecting a sample and of a column thermostatic bath temperature being kept at 80° C. for five minutes and then increased up to 240° C. at a rate of 5° C./min. As standard specimens, propanal, butanal, and hexanal as volatile aldehydes were used. Based on the peak area obtained from gas chromatography for the standard specimens and HSG samples, the content of respective volatile aldehydes in HSG was calculated.

[3] = Decomposition of fatty acids by heating, 9-hexadecanoic acid (Experiment 5); conditions: heated at 105° C. for one hour with 100 mg test saccharide; control 38.1
Procedure: as §1, §2, §3

[4] = Panel test of body-odor-like smell (KAREI-SHU), linoleic acid heated (Experiment 2); parameters: key: +++: the same or higher level of odor; ++: slightly lower level of odor; +: clearly lower level of odor than that of the control system; conditions: compared with control system
From the text: Upon the HSG samples, the level of a body-odor-like smell was examined on a panel test consisting of six professional panels; the panels directly smelled the samples from each glass vial and judged the level of the smells for each samples with test saccharides based on the following four ranks, i.e., the same or higher level of odor (+++), slightly lower level of odor (++), clearly lower level of odor (+), and odorless (−) as compared with the control system. Summing up the data from the panels, the samples tested were totally evaluated.
The content of 2-nonenal in HSG was measured by GC similarly as in Experiment 1 except that linoleic acid was used as a fatty acid and 2-nonenal, a volatile aldehyde, was used as a standard substance. The level of a body-odor-like smell, particularly with respect to KAREI-SHU, in each sample was evaluated by panel test in accordance with the method in Experiment 1.

For OC[C@H]1O[C@@](CO)(O[C@H]2O[C@H](CO)[C@@H](O)[C@H](O)[C@H]2O)[C@@H](O)[C@@H]1O [Sucrose, sucrose], the “Decomposition percentage, Linoleic acid” value [1] was 58.0%, the “Content in HSG, Hexanal” value [2] was 0.07 µg/mL and the “Content in HSG, Butanal” value [2] was 1.11 µg/mL. For the same compound, the “Content in HSG, Propanal” value [2] was 9.98 µg/mL, the “Decomposition percentage, 9-Hexadecanoic acid” value [3] was 38.5% and the “Evaluation of panel test” value [4] was “+++”.
In the case of OC[C@H]1O[C@H](O[C@H]2O[C@H](CO)[C@@H](O)[C@H](O)[C@H]2O)[C@H](O)[C@@H](O)[C@@H]1O [Trehalose, trehalose], the “Decomposition percentage, Linoleic acid” value [1] is reported as 25.2%, the “Content in HSG, Hexanal” value [2] is reported as 0.02 µg/mL and the “Content in HSG, Butanal” value [2] is reported as 0.19 µg/mL. For the same compound, the “Content in HSG, Propanal” value [2] was 3.47 µg/mL, the “Decomposition percentage, 9-Hexadecanoic acid” value [3] was 13.2% and the “Evaluation of panel test” value [4] was “+”.
In the case of OC[C@@H](O)[C@@H](O[C@H]1O[C@H](CO)[C@@H](O)[C@H](O)[C@H]1O)[C@H](O)[C@@H](O)CO [Maltitol, maltitol], the “Decomposition percentage, Linoleic acid” value [1] is reported as 33.4%, the “Content in HSG, Hexanal” value [2] is reported as 0.03 µg/mL and the “Content in HSG, Butanal” value [2] is reported as 1.02 µg/mL. For the same compound, the “Content in HSG, Propanal” value [2] was 4.09 µg/mL, the “Decomposition percentage, 9-Hexadecanoic acid” value [3] was 14.7% and the “Evaluation of panel test” value [4] was “+”.
